Data as given in ChEMBL document CHEMBL3045519, “Selective Herbicidal Activity of 3, 5-Dichloropyridyloxy-phenoxypropionamidoxyacetic Acid Derivatives between Wheat and Wild Oat” (J Pestic Sci, 1996).
Active and inactive are the calls of the source. The rule behind the calls is not given here.

Assays:
Triticum aestivum [1] = assay: Phytotoxicity against Triticum aestivum (wheat) under greenhouse conditions at 5 g/a at 1.5-leaf stage measured after 3 weeks by pot test; assay type: organism-based; settings: in vivo, 504 h
Triticum aestivum [2] = assay: Phytotoxicity against Triticum aestivum (wheat) under greenhouse conditions at 10 g/a at 1.5-leaf stage measured after 3 weeks by pot test; assay type: organism-based; settings: in vivo, 504 h
Triticum aestivum [3] = assay: Phytotoxicity against Triticum aestivum (wheat) under greenhouse conditions at 2.5 g/a at 1.5-leaf stage measured after 3 weeks by pot test; assay type: organism-based; settings: in vivo, 504 h
Triticum aestivum [4] = assay: Phytotoxicity against Triticum aestivum (wheat) under greenhouse conditions at 1.3 g/a at 1.5-leaf stage measured after 3 weeks by pot test; assay type: organism-based; settings: in vivo, 504 h
Triticum aestivum [5] = assay: Phytotoxicity against Triticum aestivum (wheat) under greenhouse conditions at 0.6 g/a at 1.5-leaf stage measured after 3 weeks by pot test; assay type: organism-based; settings: in vivo, 504 h
Avena fatua [6] = assay: Post-emergence herbicidal activity against Avena fatua under greenhouse conditions at 10 g/a at 1.5-leaf stage measured after 3 weeks by pot test; assay type: functional, organism-based
Avena fatua [7] = assay: Post-emergence herbicidal activity against Avena fatua under greenhouse conditions at 5 g/a at 1.5-leaf stage measured after 3 weeks by pot test; assay type: functional, organism-based
Avena fatua [8] = assay: Post-emergence herbicidal activity against Avena fatua under greenhouse conditions at 2.5 g/a at 1.5-leaf stage measured after 3 weeks by pot test; assay type: functional, organism-based
Avena fatua [9] = assay: Post-emergence herbicidal activity against Avena fatua under greenhouse conditions at 1.3 g/a at 1.5-leaf stage measured after 3 weeks by pot test; assay type: functional, organism-based
Avena fatua [10] = assay: Post-emergence herbicidal activity against Avena fatua under greenhouse conditions at 0.6 g/a at 1.5-leaf stage measured after 3 weeks by pot test; assay type: functional, organism-based
Avena fatua [11] = assay: Post-emergence herbicidal activity against Avena fatua under greenhouse conditions compound treated at 1.5-leaf stage measured after 3 weeks by pot test relative to diclofop-methyl; assay type: functional
Triticum aestivum [12] = assay: Phytotoxicity against Triticum aestivum (wheat) under greenhouse conditions at 0.3 g/a at 1.5-leaf stage measured after 3 weeks by pot test; assay type: organism-based; settings: in vivo, 504 h
Avena fatua [13] = assay: Post-emergence herbicidal activity against Avena fatua under greenhouse conditions at 0.3 g/a at 1.5-leaf stage measured after 3 weeks by pot test; assay type: functional, organism-based

SMILES	Activity (Triticum aestivum [1])	Activity (Triticum aestivum [2])	Activity (Triticum aestivum [3])	Activity (Triticum aestivum [4])	Activity (Triticum aestivum [5])	Activity (Avena fatua [6])	Activity (Avena fatua [7])	Activity (Avena fatua [8])	Activity (Avena fatua [9])	Activity (Avena fatua [10])	Ratio (Avena fatua [11])	Activity (Triticum aestivum [12])	Activity (Avena fatua [13])
COC(=O)C(C)Oc1ccc(Oc2ccc(Cl)cc2Cl)cc1 (stereo unspecified) [DICLOFOP-METHYL]	Non-toxic	Non-toxic	Non-toxic	Non-toxic	Non-toxic	Active	Active	Active	inactive	inactive			
CCNC(=O)CNC(=O)C(C)Oc1ccc(Oc2ncc(Cl)cc2Cl)cc1 (stereo unspecified)	Non-toxic		Non-toxic	Non-toxic	Non-toxic		Active	Active	Active	Active	2	Non-toxic	Active
